The target in this assay is T1, élastase de leucocytes humains (Homo sapiens, UniProt P08246).
T1 construct: purchased Elastin Products Co. SE 563; host or cells: human leukocytes, as the enzyme's name says
T1 sequence (P08246 30-267): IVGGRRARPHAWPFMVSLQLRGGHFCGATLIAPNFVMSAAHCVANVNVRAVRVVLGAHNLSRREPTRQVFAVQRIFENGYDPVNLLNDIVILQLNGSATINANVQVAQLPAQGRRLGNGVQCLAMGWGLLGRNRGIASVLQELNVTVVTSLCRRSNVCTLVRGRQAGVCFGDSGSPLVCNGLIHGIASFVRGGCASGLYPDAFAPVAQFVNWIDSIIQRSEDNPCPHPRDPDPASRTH
Description: Anti-elastase activity: release of p-nitroaniline from N-succinyl-(Ala)3-p-nitroanilide, spectrophotometry at 410 nm. The conditions noted are these: pH 8, 37°C, pH8, 5 min preincubation, substrate 250 µM, read-out: % I (%). The assay is classed as biochemical. An excerpt: Les exemples qui suivent permettent d'illustrer l'invention. Dans ces exemples, on utilise les méthodes d'analyse suivantes : - Spectrographie infrarouge (IR) Les spectres sont réalisés au moyen d'un appareil PERKIN ELMER 1760 IRTF, en dispersion dans KBr à 1 %. Les valeurs sont exprimées en nombre d'onde par centimètre. - Résonance magnétique nucléaire (RMN) Les spectres sont réalisés au moyen d'un appareil BRUCKER DRX 500, à 500 MHz (^1H) et 125 MHz (^13C) dans le DMSO-d6. La calibration de l'appareil est effectuée au moyen de DMSO. Les déplacements chimiques sont exprimés en ppm. L'aspect des signaux est noté : singulet (s), doublet (d), triplet (t), quadruplet (q), multiplet (m), quintuplet (*5) et couplage AB (AB). - Mesure de l'activité anti-élastase L'activité anti-élastase est mesurée selon la méthode qui consiste à faire réagir l'élastase de leucocytes humains (référence SE 563; Elastin Products Co.; Owensville, MO, USA) avec le N-succinyl-(Ala)3-p-nitroanilide (réf. S4760; Sigma) et mesurer la libération de p-nitroaniline. On utilise le N-succinyl-(Ala)3-p-nitroanilide en solution dans le tétrahydrofurane et une solution d'élastase à 100 mg/ml dans un mélange de glycérol et de tampon acétate de sodium (50/50; v/v), pH5. L'activité de l'enzyme est mesurée à 37°C dans 100 mM de tampon Tris-HCI, pH8 contenant 0,01 % de Triton X-100 (volume/volume) et 0,02 % d'azide de sodium (poids/volume). Le céramide à tester, solubilisé dans le tétrahydrofurane (concentration en THF = 0,5 % en volume) est préincubé en présence de l'enzyme (0,05 mg/ml) dans le tampon pendant 5 minutes à 37°C. On ajoute le N-succinyl-(Ala)3-p-nitroanilide (concentration finale : 250 µM) et on mesure la libération de la p-nitroaniline dans une cuve en quartz par spectrophotométrie à 410 nm. La capacité inhibitrice du céramide est exprimée en pourcentage d'inhibition (% I) selon la relation : %I = (1 -(Vi)/(Vo))×100 [formula] dans laquelle Vi et Vo sont les vitesses d'apparition de la p-nitroaniline en présence et en absence d'inhibiteur respectivement. - Mesure de l'amélioration de la barrière cutanée a) mesure de la Perte Insensible en Eau (PIE) La mesure de la PIE permet de quantifier la très faible quantité d'eau qui diffuse passivement à travers le stratum corneum. Ce paramètre représente un très bon index de la fonction barrière du stratum corneum. Cette méthode est surtout utilisée pour contrôler l'efficacité de formules cosmétiques qui, contenant certains types de lipides sont capables de diminuer la PIE et, en conséquence, d'empêcher la déshydratation du stratum corneum. La sonde est laissée en contact de la peau pendant 2 minutes environ de façon à atteindre une position d'équilibre. PIE = D'(dP)/(dx)(gradient de pression de vapeur) [formula] Les valeurs sont exprimées en g/m^2/heure et permettent de calculer un delta de PIE = PIE (peau traitée) - PIE (peau témoin). L'appareil utilisé est un Evaporimètre EPI de Servomed. Les mesures sont effectuées sur deux groupes de 15 volontaires sains ayant une peau sèche, avant l'application du produit (t=0) et après l'application (t=0,5 heure, 1 heure, 3 heures et 6 heures) sur la face interne des deux avant-bras. L'analogue de céramide selon l'invention ou le céramide témoin est incorporé dans une crème ayant la composition suivante (en % en poids) : […]

For `CCCCCCCCCCCCCCCCCC(=O)NC(CC)(CO)COC(=O)CCCCCCCCCCCCCCCCC` (centres unmarked) [Exemple 4, 1-stéaroyl-2-éthyl-2-stéaroylamino-1,3-propanediol], the inhibition at 250 µM (Concentration 250 µM) stood at 67%. Moreover, the inhibition at 500 µM (Concentration 500 µM) amounted to 86%.

These data come from patent publication EP0968998A1, “Cosmetic compositions, ceramide analogues with anti-elastase activity and process for their preparation” (ELF ATOCHEM S.A., priority 1998, dated 2000).
